From patent US11370779B2, “Pharmaceutical composition for preventing or treating acute myeloid leukemia or metastatic breast cancer” (PELEMED CO., LTD., priority 2017, dated 2022)
Read-outs that look alike come from different tables or passages of the source.

Key:
MV4;11 xenograft = experiment: MV4;11 mouse tumor xenograft, intravenous LDD1937; format: in vivo
Description: The drug or the control PBS was injected daily for a duration of 21 days.

MV4;11 cells = experiment: Cell viability, EZ-Cytox tetrazolium assay, MV4;11; format: cell-based, human
Description: The cultured cells were incubated at 3° C. with 5% CO2.
(§1) Cell viability was assessed by a tetrazolium-based assay using the EZ-Cytox Cell Viability Assay kit (DaeilLab, Korea). Briefly, 2,000 to 15,000 cells were plated in 96-well plates in 100 μl of medium. The next day, the cells were treated with compounds together with dimethyl sulfoxide (DMSO) as a negative control. Three days (72 hours) after the drug addition, 15 μl of the EZ-Cytox kit reagent was added to each well of the 96-well plate and then incubated at 37° C. in a humidified CO2 incubator for 4 hours. After incubation, the optical density (OD) was measured at a wavelength of 450 nm using a Victor multilabel reader (Perkin Elmer, Waltham, Mass., USA).

PC-3 cells = experiment: Cytotoxicity assay, PC-3; format: cell-based; conditions: Homo sapiens, mean ± S.D.
Description: MDA-MB-231 (metastatic breast cancer, ATCC HTB-26), Jurkat (human acute T lymphocytic leukemia, ATCC TIB-152), and K-562 (human chronic myelogenous leukemia, ATCC CCL-243) cells were cultured in RPMI-1640 (Sigma Co.). MCF7 (human breast adenocarcinoma, ATCC HTB-22) and PC-3 (human prostate adenocarcinoma, ATCC CRL-1435) cells were cultured in DMEM (Sigma Co.) medium supplemented with 10% fetal bovine serum and 1% penicillin/streptomycin. The cultured cells were incubated at […] with 5% CO2. Cell viability was assessed by a tetrazolium-based assay using the EZ-Cytox Cell Viability Assay kit (DaeilLab, Korea). […] The next day, the cells were treated with compounds together with dimethyl sulfoxide (DMSO) as a negative control. Three days (72 hours) after the drug addition, 15 μl of the EZ-Cytox kit reagent was added to each well of the 96-well plate and then incubated at 37° C. in a humidified CO2 incubator for 4 hours. After incubation, the optical density (OD) was measured at a wavelength of 450 nm using a Victor multilabel reader (Perkin Elmer, Waltham, Mass., USA). The IC50 was calculated by nonlinear regression using Prism version 5.01 (GraphPad, La Jolla, Calif., USA).

cMET = cMET (Homo sapiens (Human), UniProt P08581); experiment: cMET in vitro kinase HTRF assay; format: biochemical; conditions: mean ± S.D.
Description: (§2) Inhibition of the FLT3 kinase activity was measured using homogeneous, time-resolved fluorescence (HTRF) assays. Recombinant proteins containing the FLT3 kinase domain were purchased from Carna biosciences (Japan). Optimal enzyme, ATP, and substrate concentrations were established using the HTRF KinEASE kit (Cisbio, France) according to the manufacturer's instructions. The FLT3 enzymes were mixed in sequence with diluted compounds and peptide substrates in a kinase reaction buffer (50 mM HEPES (pH 7.0), 500 μM ATP, 0.1 mM sodium orthovanadate, 5 mM MgCl2, 1 mM DTT, 0.01% bovine serum albumin (BSA), and 0.02% NaN3). After the addition of the reagents for detection, the TR-FRET signal was measured using a Victor multilabel reader (Perkin Elmer, Waltham, Mass., USA). The IC50 was calculated by nonlinear regression using Prism version 5.01 (GraphPad). JAK2, JAK3, cMET, and RET in vitro kinase assays were also performed using the HTRF assay.

FLT3 kinase = FLT3 kinase (Homo sapiens (Human), UniProt P36888); experiment: In vitro FLT3 kinase HTRF assay (Example 2); format: biochemical; conditions: FLT3 vs JAK2, JAK3, cMET, IRAK4
Description: as §2, with “The IC50 was calculated by nonlinear regression using Prism version 5.01 (GraphPad).” left out

HCT-116 (colon cancer) = experiment: WST anti-proliferative assay, HCT-116; format: cell-based; conditions: Homo sapiens, HCT-116, read-out: % inhibition at 1 μM, HCT-116
Description: (§3) (Table 6) Compound 33 (LDD-2635) was tested at 8 concentrations to measure their anti-proliferative effects on various human cancer cell lines using WST assay. The GI50 values were obtained in triplicate and the error bars represent the standard error of the mean.

A549 (lung cancer) = experiment: WST anti-proliferative assay, A549; format: cell-based; conditions: Homo sapiens, A549, read-out: % inhibition at 1 μM, A549
Description: as §3

MDA-MB-231 = experiment: Cell viability, EZ-Cytox tetrazolium assay, MDA-MB-231; format: cell-based, human; conditions: Homo sapiens, MDA-MB-231; 72 hours
Description: MDA-MB-231 (metastatic breast cancer, ATCC HTB-26), Jurkat (human acute T lymphocytic leukemia, ATCC TIB-152), and K-562 (human chronic myelogenous leukemia, ATCC CCL-243) cells were cultured in RPMI-1640 (Sigma Co.). MCF7 (human breast adenocarcinoma, ATCC HTB-22) and PC-3 (human prostate adenocarcinoma, ATCC CRL-1435) cells were cultured in DMEM (Sigma Co.) medium supplemented with 10% fetal bovine serum and 1% penicillin/streptomycin. The cultured cells were incubated at 3° C. with 5% CO2.
as §1, with “USA). The IC50 was calculated by nonlinear regression using Prism version 5.01 (GraphPad, La Jolla, Calif., USA).” for “USA).”

MOLM14 FLT3-ITD-D835Y = experiment: Cell proliferation MTT assay, MOLM14-ITD-D835Y; format: cell-based, human; conditions: Homo sapiens, MOLM-14
Description: (§4) MOLM14 were purchased from the ATCC and the cells were maintained in RPMI medium (Hyclone) with 10% Fetal bovine serum (Gibco) and 1% penicillin/streptomycin.
Mutagenesis is performed in FLT3-ITD MSCV plasmid using Q5 site-directed mutagenesis kit (E05545). […] Retroviral particles were produced by transiently transfecting HEK293T cells with Retroviral vectors together with packaging vectors, GPE and VSVG. 48 h after transfection, media containing viral particles were collected and filtered for infection. Viral particles were infected to MOLM14 cells and 48 h after infection, infected cells were selected with puromycin (1 μg/mL).

HepG2 (liver cancer) = experiment: WST anti-proliferative assay, HepG2; format: cell-based; conditions: Homo sapiens
Description: as §3

PC3 (prostate cancer) = experiment: WST anti-proliferative assay, PC3; format: cell-based; conditions: Homo sapiens, read-out: % inhibition at 1 μM, PC3
Description: as §3

[1] = system: MOLM14 FLT3-ITD (MOLM14-ITD); experiment: Cell proliferation MTT assay, MOLM14-ITD; format: cell-based; conditions: Homo sapiens, MOLM-14
Description: as §4
Viral particles were infected to MOLM14 cells and 48 h after infection, infected cells were selected with puromycin (1 μg/mL).

MOLM14 Wild type = experiment: Cell proliferation MTT assay, MOLM14 wild type; format: cell-based; conditions: Homo sapiens, MOLM-14
Description: as §4

MDA-MB-231 xenograft = experiment: MDA-MB-231 mouse tumor xenograft; format: in vivo; conditions: 20 mg/kg/p.o/day, 4 weeks
Description: 6-weeks-old Balb/c nu/nu mice (female) were purchased from Central Lab. Animal Inc. to be used. […] The candidate substances LDD-2614 (Compound 21), 2633 (Compound 28), 2634 (Compound 34), 2635 (Compound 33) were administered at 20 mg/kg/p.o/day, and doxorubicin, which was a control, was administered at 5 mg/kg/i.p (once a week) for 4 weeks.

SK-OV-3 (ovarian cancer) = experiment: WST anti-proliferative assay, SK-OV-3; format: cell-based; conditions: Homo sapiens, SK-OV-3, read-out: % inhibition at 1 μM, SK-OV-3
Description: as §3

MV4-11 cells = experiment: Cytotoxicity WST assay, MV4-11 (Example 3); format: cell-based, human; conditions: for GI50: Homo sapiens, MV4-11, WST assay
Description: Test 96-well plates were incubated at 37° C. with 5% CO2 for 72 h. After 72 h incubation, 10 μL of the EZ-Cytox kit reagent from EZ-cytox Cell viability assay kit (DaeilLab, Korea) were added to each well of the 96-well plate and then incubated at 37° C. with 5% CO2 for 3 h. […] The IC50 values were calculated with nonlinear regression analysis using OriginPro 9.1 software (OriginLab, Northampton, Mass.). […] The GI50 values were obtained in triplicate and the error bars represent the standard error of the mean.

MV4-11 xenograft = experiment: MV4-11 mouse tumor xenograft, oral administration
Description: The drug or the control PBS was administered daily for a duration of 21 days. Tumor sizes were measured twice a week for 21 days, and the tumor volumes were calculated with the following formula: V (volume)=X (length)×D (width)2/2. After 21 days, the mice were sacrificed, and the tumor weights were measured.
An in vivo MV4-11 xenograft study was performed to determine the efficacy of the indirubin derivatives. MV4-11 cells were subcutaneously injected into BALB/c nu/nu mice, and tumors were allowed to grow to a size of approximately 100 mm^3.

[2] = Homo sapiens, MV4-11, 72 hours, read-out: GI50(nM) MV4;11

Sequence of cMET (P08581 25-1390): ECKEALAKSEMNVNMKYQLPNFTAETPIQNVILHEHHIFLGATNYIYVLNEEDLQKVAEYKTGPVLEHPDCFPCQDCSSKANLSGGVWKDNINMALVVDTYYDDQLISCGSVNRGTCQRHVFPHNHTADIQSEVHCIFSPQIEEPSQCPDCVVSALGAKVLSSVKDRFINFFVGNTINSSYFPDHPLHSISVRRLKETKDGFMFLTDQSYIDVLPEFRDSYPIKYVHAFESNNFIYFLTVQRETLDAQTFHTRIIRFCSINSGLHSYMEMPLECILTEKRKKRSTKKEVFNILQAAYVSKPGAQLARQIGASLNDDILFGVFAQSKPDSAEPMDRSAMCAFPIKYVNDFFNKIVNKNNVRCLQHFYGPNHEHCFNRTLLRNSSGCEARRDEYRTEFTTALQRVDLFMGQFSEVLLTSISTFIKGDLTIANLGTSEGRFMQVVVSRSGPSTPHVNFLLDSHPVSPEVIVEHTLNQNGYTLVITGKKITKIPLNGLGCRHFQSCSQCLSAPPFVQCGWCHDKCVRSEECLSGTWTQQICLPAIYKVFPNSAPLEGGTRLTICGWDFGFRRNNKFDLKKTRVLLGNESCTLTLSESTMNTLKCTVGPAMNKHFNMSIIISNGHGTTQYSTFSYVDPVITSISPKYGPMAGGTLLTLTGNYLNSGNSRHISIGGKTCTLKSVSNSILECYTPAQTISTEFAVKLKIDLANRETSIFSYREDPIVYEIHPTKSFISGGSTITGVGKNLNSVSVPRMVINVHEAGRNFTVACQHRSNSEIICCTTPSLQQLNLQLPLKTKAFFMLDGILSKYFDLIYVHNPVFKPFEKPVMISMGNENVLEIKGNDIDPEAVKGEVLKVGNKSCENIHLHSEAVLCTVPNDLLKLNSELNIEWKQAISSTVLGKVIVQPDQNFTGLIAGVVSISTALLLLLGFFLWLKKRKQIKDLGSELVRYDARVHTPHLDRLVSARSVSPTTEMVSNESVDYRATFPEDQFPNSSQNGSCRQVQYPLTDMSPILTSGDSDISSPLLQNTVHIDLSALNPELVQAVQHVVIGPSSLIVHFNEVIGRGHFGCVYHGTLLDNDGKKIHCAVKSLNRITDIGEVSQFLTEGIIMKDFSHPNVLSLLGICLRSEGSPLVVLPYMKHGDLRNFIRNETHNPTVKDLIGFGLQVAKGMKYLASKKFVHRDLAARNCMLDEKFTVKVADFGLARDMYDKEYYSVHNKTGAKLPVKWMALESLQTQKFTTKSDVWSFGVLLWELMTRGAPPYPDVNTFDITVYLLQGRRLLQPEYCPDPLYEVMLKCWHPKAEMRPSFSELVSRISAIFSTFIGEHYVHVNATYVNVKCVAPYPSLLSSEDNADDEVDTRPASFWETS
Sequence of FLT3 kinase (P36888 610-943): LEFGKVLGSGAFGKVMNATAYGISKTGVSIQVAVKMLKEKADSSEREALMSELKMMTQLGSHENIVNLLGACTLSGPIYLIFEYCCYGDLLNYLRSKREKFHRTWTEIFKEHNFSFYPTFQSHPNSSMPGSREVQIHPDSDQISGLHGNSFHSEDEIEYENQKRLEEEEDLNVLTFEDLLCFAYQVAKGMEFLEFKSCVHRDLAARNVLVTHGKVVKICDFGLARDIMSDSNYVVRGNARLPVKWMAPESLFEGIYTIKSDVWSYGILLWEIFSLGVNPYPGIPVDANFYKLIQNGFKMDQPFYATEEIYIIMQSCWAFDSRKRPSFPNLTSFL

COC(=O)c1ccc2c(c1)/C(=C1/Nc3ccccc3/C1=N\OCCN1CCNCC1)C(=O)N2.Cl.Cl [Compound 4, Methyl (2Z,3E)-2′-oxo-3-((2-(piperazin-1-yl)ethoxy)imino)-[2,3′-biindolinylidene]-5′-carboxylate dihydrochloride]
day from which the tumor disappeared (MV4;11 xenograft; 10 mg/kg i.v. daily, based on measured tumor volume): 3 days | body weight during the administration period (MV4;11 xenograft; 5 or 10 mg/kg i.v., 21 days, between groups): no significant difference in body weight | increase of activity against MV4;11 compared to Compound 1 (MV4;11 cells): 40 fold | GI50 (MV4;11 cells; [2]): 1 nM | IC50 (MV4;11 cells; Homo sapiens, MV4-11, Table 1, 72 hours): 1 nM | GI50 (MV4;11 cells; Homo sapiens, MV4-11, Table 4, mean ± S.D., read-out: GI50 (μM) MV-4-11): 1.2 ± 0.15 nM | GI50 (PC-3 cells): 1.1 ± 0.14 µM | IC50 (cMET): 0.25 ± 0.074 µM | difference in the IC50 between FLT3 and other kinases (FLT3 kinase): ≥ 170 fold

Cl.Cl.O=C1Nc2ccc(F)cc2/C1=C1/Nc2ccccc2/C1=N\OCCN1CCNCC1 [Compound 33, (2Z,3E)-5′-fluoro-3-((2-(piperazin-1-yl)ethoxy)imino)-[2,3′-biindolinylidene]-2′-one dihydrochloride]
inhibition at 1 µM (HCT-116 (colon cancer)): 38.5% | inhibition at 1 µM (A549 (lung cancer)): 2.05% | GI50 (MDA-MB-231): 117 nM | GI50 (MV4;11 cells; [2]): 1 nM | GI50 (MOLM14 FLT3-ITD-D835Y): 1.87 nM | GI50 (HepG2 (liver cancer)): 1.1 ± 0.2 µM | inhibition at 1 µM (PC3 (prostate cancer)): 40.7% | GI50 [1]: 1.85 nM | GI50 (MOLM14 Wild type): 4.88 nM | weights of the liver and the kidney (MDA-MB-231 xenograft): no significant difference | inhibition at 1 µM (SK-OV-3 (ovarian cancer)): 16% | times more sensitive against MV4-11 cells than K562 cell line (MV4-11 cells): 430 times | GI50 (MV4-11 cells; Table 6, read-out: GI50 value (μM) MV4-11): 0.001 ± 0.0003 µM | GI50 (MV4-11 cells; read-out: GI50 MV4-11 cells): 0.001 µM | weight loss or other signs of toxicity during the administration period (MV4-11 xenograft; 20 mg/kg oral once daily for 21 days): no weight loss or any other signs of toxicity | day by which the tumor disappeared (MV4-11 xenograft; 20 mg/kg oral once daily, based on measured tumor volume): ≤ 14 days
